Assay results published in patent US20240383898A1, “PYRIDO RING COMPOUND, PREPARATION METHOD THEREFOR, INTERMEDIATE, COMPOSITION, AND APPLICATION” (YIYOU BIOTECH (SHANGHAI) CO., LTD, priority 2021, published 2024).

Assays:
JAK2 = biological target: T1, JAK2 (Homo sapiens, UniProt O60674); experiment: In vitro activity test of JAK2 kinase (Caliper EZ Reader conversion assay); assay type: biochemical; conditions: enzyme activity, 10 concentrations from 1000 nM, 3-fold dilution
T1 construct: purchased Carna 08-045
Experimental: (§1) In Vitro Activity Test of JAK1 and JAK2 Kinases
(§2) • Centrifuge (manufacturer: Eppendorf, model: 5430) • ELISA Instrument (Manufacturer: Perkin Elmer, Model: Caliper EZ Reader 1I) • Echo 550 (Manufacturer: Labcyte, Model: Echo 550)
(§3) (1) Prepare 1 Kinase buffer.
(§4) (2) Compound concentration gradient preparation: The test compound was tested at 1000 nM, 3-fold dilution, 10 concentrations, two-well assay, and configured to a 100-fold final concentration in a 384-well plate. 250 nl of the test compound was then transferred to the 384 reaction plate using Echo550. 250 nl of 100% DMSO was added to each of the negative and positive control wells.
(§5) (3) Prepare 2.5 times the final concentration of kinase solution with 1×Kinase buffer.
(§6) (4) Add 10 μL of 2.5 times the final concentration of kinase solution to the compound wells and 10 μL of 1×Kinase buffer to the negative control wells.
(§7) (5) Centrifuge at 1000 rpm for 30 seconds, mix well with shaking, and incubate at room temperature for 10 minutes.
(§8) (6) Prepare a 25/15-fold final concentration of mixture of ATP and Kinase substrate with 1×Kinase buffer.
(§9) (7) Add 15 μL of a mixture of 25/15 times the final concentration of ATP and substrate to start the reaction.
(§10) (8) Centrifuge the 384-well plate at 1000 rpm for 30 seconds, mix well with shaking, and incubate at room temperature for an appropriate amount of time.
(§11) (9) Stop the kinase reaction by adding 30 μL of termination solution, centrifuge at 1000 rpm for 30 seconds, and mix well with shaking.
(§12) (10) Read the conversion rate with Caliper EZ Reader.
(§13) where: Conversion %_sample is the conversion rate reading of the sample-, Conversion %_min: the average value of the negative control wells, representing the conversion reading of the wells without enzyme activity: Conversion %-max: the average value of the positive control wells, representing the conversion reading of the wells without compound inhibition.
(§14) The log value of concentration was used as the X-axis and the percentage inhibition as the Y-axis, and the function of the analytical software GraphPad Prism 5; log(inhibitor) vs. response -Variable slope, was used to lit dose-effect curves to obtain the IC50) values of each compound on enzyme activity.
(§15) The formula is Y=Bottom+(Top-Bottom)/(1+10^((LogIC50-X)*HillSlope))
(§16) The 1C50 data are specified in Table 1.

JAK1 = biological target: T2, JAK1 (Homo sapiens, UniProt P23458); experiment: In vitro activity test of JAK1 kinase (Caliper EZ Reader conversion assay); assay type: biochemical; conditions: enzyme activity, 10 concentrations from 1000 nM, 3-fold dilution
T2 construct: purchased Carna 08-114
Experimental: as §1, §2, §3, §4, §5, §6, §7, §8, §9, §10, §11, §12, §13, §14, §15, §16

T2 sequence (P23458 whole entry, species assumed): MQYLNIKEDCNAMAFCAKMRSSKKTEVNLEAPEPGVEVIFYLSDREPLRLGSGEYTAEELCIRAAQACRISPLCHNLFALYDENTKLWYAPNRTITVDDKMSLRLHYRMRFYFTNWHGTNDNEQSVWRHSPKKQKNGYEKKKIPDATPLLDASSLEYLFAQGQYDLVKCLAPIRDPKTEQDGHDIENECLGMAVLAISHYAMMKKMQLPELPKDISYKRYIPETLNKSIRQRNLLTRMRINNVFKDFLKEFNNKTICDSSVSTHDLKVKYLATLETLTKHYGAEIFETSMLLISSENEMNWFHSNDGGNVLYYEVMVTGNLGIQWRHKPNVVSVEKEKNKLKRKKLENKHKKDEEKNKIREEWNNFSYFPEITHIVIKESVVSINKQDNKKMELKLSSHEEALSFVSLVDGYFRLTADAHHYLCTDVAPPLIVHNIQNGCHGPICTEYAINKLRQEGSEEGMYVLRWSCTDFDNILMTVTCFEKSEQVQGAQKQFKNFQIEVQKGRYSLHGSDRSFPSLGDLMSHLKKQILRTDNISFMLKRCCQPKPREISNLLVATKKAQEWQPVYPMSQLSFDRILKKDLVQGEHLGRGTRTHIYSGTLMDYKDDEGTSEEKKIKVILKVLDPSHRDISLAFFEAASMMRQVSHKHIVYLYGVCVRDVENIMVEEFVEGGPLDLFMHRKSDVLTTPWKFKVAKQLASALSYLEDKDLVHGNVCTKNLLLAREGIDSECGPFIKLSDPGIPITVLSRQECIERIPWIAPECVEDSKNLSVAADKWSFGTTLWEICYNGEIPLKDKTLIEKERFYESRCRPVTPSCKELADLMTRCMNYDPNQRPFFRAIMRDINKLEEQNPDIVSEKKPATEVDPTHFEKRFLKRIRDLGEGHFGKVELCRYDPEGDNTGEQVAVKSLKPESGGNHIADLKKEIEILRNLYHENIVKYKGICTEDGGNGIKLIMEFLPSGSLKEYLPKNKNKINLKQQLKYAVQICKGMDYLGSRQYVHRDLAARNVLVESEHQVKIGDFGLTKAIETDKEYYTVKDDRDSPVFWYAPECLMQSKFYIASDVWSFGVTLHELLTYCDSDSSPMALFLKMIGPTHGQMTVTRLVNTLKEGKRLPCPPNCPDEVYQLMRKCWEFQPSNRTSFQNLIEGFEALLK
T1 sequence (O60674 whole entry, species assumed): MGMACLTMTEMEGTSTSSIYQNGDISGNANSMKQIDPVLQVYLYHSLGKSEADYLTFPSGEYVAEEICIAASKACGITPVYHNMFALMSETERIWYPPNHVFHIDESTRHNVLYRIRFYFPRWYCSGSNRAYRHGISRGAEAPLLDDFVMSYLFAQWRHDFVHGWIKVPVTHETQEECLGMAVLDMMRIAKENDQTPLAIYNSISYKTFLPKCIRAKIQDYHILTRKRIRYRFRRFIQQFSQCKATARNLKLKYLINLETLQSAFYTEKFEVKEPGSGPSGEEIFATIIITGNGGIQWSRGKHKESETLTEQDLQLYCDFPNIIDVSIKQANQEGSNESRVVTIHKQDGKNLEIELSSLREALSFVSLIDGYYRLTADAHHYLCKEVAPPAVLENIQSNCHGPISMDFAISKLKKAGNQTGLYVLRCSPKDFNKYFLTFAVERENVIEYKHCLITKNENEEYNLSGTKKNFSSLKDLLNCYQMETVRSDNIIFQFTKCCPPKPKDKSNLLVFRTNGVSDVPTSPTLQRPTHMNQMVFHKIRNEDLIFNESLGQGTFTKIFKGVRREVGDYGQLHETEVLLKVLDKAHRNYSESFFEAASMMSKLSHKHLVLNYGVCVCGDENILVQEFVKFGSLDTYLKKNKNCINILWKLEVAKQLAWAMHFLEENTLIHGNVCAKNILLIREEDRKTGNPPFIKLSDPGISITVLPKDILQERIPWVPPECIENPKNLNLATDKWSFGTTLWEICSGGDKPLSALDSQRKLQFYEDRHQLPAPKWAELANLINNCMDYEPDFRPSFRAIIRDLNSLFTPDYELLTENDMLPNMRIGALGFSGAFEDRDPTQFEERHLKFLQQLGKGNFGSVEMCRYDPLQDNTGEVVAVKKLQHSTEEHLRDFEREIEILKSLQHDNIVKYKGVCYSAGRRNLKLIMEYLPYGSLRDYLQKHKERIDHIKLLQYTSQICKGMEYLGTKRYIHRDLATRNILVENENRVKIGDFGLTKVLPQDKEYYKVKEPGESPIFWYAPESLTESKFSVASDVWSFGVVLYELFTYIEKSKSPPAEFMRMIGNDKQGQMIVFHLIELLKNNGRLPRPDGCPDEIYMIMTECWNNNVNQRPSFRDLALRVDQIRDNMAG

Row | SMILES | IC50 (JAK2) [nM] | IC50 (JAK1) [nM]
1 | C[C@@H](O)c1nc2cnc3[nH]ccc3c2n1C1CCN(C(=O)NCC(F)(F)F)C1 (stereo in doubt) [LXS20, (R)-3-(2-((R)-1-Hydroxyethyl)imidazo[4,5-d]pyrrolo[2,3-b]pyridin-1(6H)-yl)-N-(2,2,2-trifluoroethyl)pyrrolidine-1-carboxamide] | 100 to 1000 | 100 to 1000
2 | CCCS(=O)(=O)N1CCC(n2c([C@@H](C)O)nc3cnc4[nH]ccc4c32)C1 (stereo in doubt) [LXS21, (R)-1-(1-((R)-1-(Propylsulfonyl)pyrrolidin-3-yl)-1,6-dihydroimidazo[4,5-d]pyrrolo[2,3-b]pyridin-2-yl)ethanol] | 100 to 1000 | 100 to 1000
3 | N#C[C@H]1CC[C@H](n2c(-c3ccc(CO)o3)nc3cnc4[nH]ccc4c32)CC1 (stereo in doubt) [LXS22, trans-4-(2-(5-(hydroxymethyl)furan-2-yl)imidazo[4,5-d]pyrrolo[2,3-b]pyridin-1(6H)-yl)cyclohexanecarbonitrile] | 10 to 100 | 10 to 100
4 | O=C(NCC(F)(F)F)N1CCC(n2c(-c3ccc(CO)o3)nc3cnc4[nH]ccc4c32)C1 (stereo in doubt) [LXS23, (R)-3-(2-(5-(hydroxymethyl)furan-2-yl)imidazo[4,5-d]pyrrolo[2,3-b]pyridin-1(6H)-yl)-N-(2,2,2-trifluoroethyl)pyrrolidine-1-carboxamide] | 100 to 1000 | 100 to 1000
5 | O=C(NCC(F)(F)F)N1CCC(n2c(-c3ncc[nH]3)nc3cnc4[nH]ccc4c32)C1 (stereo in doubt) [LXS24, (R)-3-(2-(1H-imidazol-2-yl)imidazo[4,5-d]pyrrolo[2,3-b]pyridin-1(6H)-yl)-N-(2,2,2-trifluoroethyl)pyrrolidine-1-carboxamide] | 100 to 1000 | 100 to 1000
6 | C=CC(=O)N1CCC(n2c(-c3ncc[nH]3)nc3cnc4[nH]ccc4c32)C1 (stereo in doubt) [LXS25, (R)-1-(3-(2-(1H-imidazol-2-yl)imidazo[4,5-d]pyrrolo[2,3-b]pyridin-1(6H)-yl)pyrrolidin-1-yl)prop-2-en-1-one] | 100 to 1000 | 100 to 1000
7 | Cc1ncc(-c2nc3cnc4[nH]ccc4c3n2C2CCC(C#N)CC2)s1 (stereo in doubt) [LXS26, trans-4-(2-(2-Methylthiazol-5-yl)imidazo[4,5-d]pyrrolo[2,3-b]pyridin-1(6H)-yl)cyclohexanecarbonitrile] | 10 to 100 | 10 to 100
8 | C[C@@H](O)c1nc2cnc3[nH]ccc3c2n1C1CCN(C(=O)OC(C)(C)C)C1 (stereo partly drawn) [LXS01, tert-butyl 3-(2-((R)-1-hydroxyethyl)imidazo[4,5-d]pyrrolo[2,3-b]pyridin-1(6H)-yl)pyrrolidine-1-carboxylate] | 100 to 1000 | 100 to 1000
9 | C[C@@H](O)c1nc2cnc3[nH]ccc3c2n1C1CCN(C(=O)c2ccc(C#N)cc2)C1 (stereo partly drawn) [LXS02, 4-(3-(2-((R)-1-hydroxyethyl)imidazo[4,5-d]pyrrolo[2,3-b]pyridin-1(6H)-yl)pyrrolidin-1-carbonyl)benzonitrile] | 100 to 1000 | 100 to 1000
10 | C[C@@H](O)c1nc2cnc3[nH]ccc3c2n1C1CCN(C(=O)c2ccc(F)cc2)C1 (stereo partly drawn) [LXS03, (4-Fluorophenyl)(3-(2-((R)-1-Hydroxyethyl)imidazo[4,5-d]pyrrolo[2,3-b]pyridin-1(6H)-yl)pyrrolidin-1-yl)methanone] | 100 to 1000 | 100 to 1000
11 | CCS(=O)(=O)N1CCC(n2c([C@@H](C)O)nc3cnc4[nH]ccc4c32)C1 (stereo partly drawn) [LXS04, (1R)-1-(1-(1-(ethylsulfonyl)pyrrolidin-3-yl)-1,6-dihydroimidazo[4,5-d]pyrrolo[2,3-b]pyridin-2-yl)ethan-1-ol] | 100 to 1000 | 10 to 100
12 | CCCS(=O)(=O)N1CC(CC#N)(n2cc(-n3c(-c4ccc(CO)o4)nc4cnc5[nH]ccc5c43)cn2)C1 [LXS14, 2-(1-(propylsulfonyl)-3-(4-(2-(5-(hydroxymethyl)furan-2-yl)imidazo[4,5-d]pyrrolo[2,3-b]pyridin-1(6H)-yl)-1H-pyrazol-1-yl)azetidin-3-yl)acetonitrile] | – | 100 to 1000

Continued, values first:

Row | IC50 (JAK2) [nM] | IC50 (JAK1) [nM] | SMILES
13 | 10 to 100 | 10 to 100 | N#C[C@H]1CC[C@H](n2c(-c3cnc(N)s3)nc3cnc4[nH]ccc4c32)CC1 (stereo in doubt) [LXS27, trans-4-(2-(2-Aminothiazol-5-yl)imidazo[4,5-d]pyrrolo[2,3-b]pyridin-1(6H)-yl)cyclohexanecarbonitrile]
14 | 10 to 100 | 10 to 100 | Cc1ccc(-c2nc3cnc4[nH]ccc4c3n2C2CCC(C#N)CC2)s1 (stereo in doubt) [LXS28, trans-4-(2-(2-Methylthiophen-5-yl)imidazo[4,5-d]pyrrolo[2,3-b]pyridin-1(6H)-yl)cyclohexanecarbonitrile]
15 | 10 to 100 | 10 to 100 | Cc1ccc(-c2nc3cnc4[nH]ccc4c3n2C2CCC(C#N)CC2)o1 (stereo in doubt) [LXS29, trans-4-(2-(2-Methylfuran-5-yl)imidazo[4,5-d]pyrrolo[2,3-b]pyridin-1(6H)-yl)cyclohexanecarbonitrile]
16 | < 10 | 10 to 100 | N#C[C@H]1CC[C@H](n2c(-c3cccc(O)c3)nc3cnc4[nH]ccc4c32)CC1 (stereo in doubt) [LXS35, trans-4-(2-(3-Hydroxyphenyl)imidazo[4,5-d]pyrrolo[2,3-b]pyridin-1(6H)-yl)cyclohexanecarbonitrile]
17 | 10 to 100 | 10 to 100 | N#C[C@H]1CC[C@H](n2c(-c3ccc(O)cc3O)nc3cnc4[nH]ccc4c32)CC1 (stereo in doubt) [LXS36, trans-4-(2-(2,4-Dihydroxyphenyl)imidazo[4,5-d]pyrrolo[2,3-b]pyridin-1(6H)-yl)cyclohexanecarbonitrile]
18 | 100 to 1000 | 100 to 1000 | N#C[C@H]1CC[C@H](n2c(-c3ccc(C(F)(F)F)cc3)nc3cnc4[nH]ccc4c32)CC1 (stereo in doubt) [LXS37, trans-4-(2-(4-(Trifluoromethyl)phenyl)imidazo[4,5-d]pyrrolo[2,3-b]pyridin-1(6H)-yl)cyclohexanecarbonitrile]
19 | 10 to 100 | 10 to 100 | N#C[C@H]1CC[C@H](n2c(-c3ccccc3O)nc3cnc4[nH]ccc4c32)CC1 (stereo in doubt) [LXS38, trans-4-(2-(2-Hydroxyphenyl)imidazo[4,5-d]pyrrolo[2,3-b]pyridin-1(6H)-yl)cyclohexanecarbonitrile]
20 | 100 to 1000 | 10 to 100 | N#C[C@H]1CC[C@H](n2c(-c3ccc(O)cc3F)nc3cnc4[nH]ccc4c32)CC1 (stereo in doubt) [LXS39, trans-4-(2-(2-Fluoro-4-hydroxyphenyl)imidazo[4,5-d]pyrrolo[2,3-b]pyridin-1(6H)-yl)cyclohexanecarbonitrile]
21 | 10 to 100 | 10 to 100 | N#C[C@H]1CC[C@H](n2c(-c3ccccc3F)nc3cnc4[nH]ccc4c32)CC1 (stereo in doubt) [LXS40, trans-4-(2-(2-Fluorophenyl)imidazo[4,5-d]pyrrolo[2,3-b]pyridin-1(6H)-yl)cyclohexanecarbonitrile]
22 | 100 to 1000 | 100 to 1000 | COc1ccc(-c2nc3cnc4[nH]ccc4c3n2C2CCC(C#N)CC2)c(O)c1 (stereo in doubt) [LXS41, trans-4-(2-(2-Hydroxy-4-methoxyphenyl)imidazo[4,5-d]pyrrolo[2,3-b]pyridin-1(6H)-yl)cyclohexanecarbonitrile]
23 | 100 to 1000 | 100 to 1000 | CSc1ccc(-c2nc3cnc4[nH]ccc4c3n2C2CCC(C#N)CC2)cc1 (stereo in doubt) [LXS42, trans-4-(2-(4-(Methylthio)phenyl)imidazo[4,5-d]pyrrolo[2,3-b]pyridin-1(6H)-yl)cyclohexanecarbonitrile]
24 | 100 to 1000 | 10 to 100 | N#C[C@H]1CC[C@H](n2c(-c3ccc(F)cc3)nc3cnc4[nH]ccc4c32)CC1 (stereo in doubt) [LXS43, trans-4-(2-(4-Fluorophenyl)imidazo[4,5-d]pyrrolo[2,3-b]pyridin-1(6H)-yl)cyclohexanecarbonitrile]
25 | 10 to 100 | 10 to 100 | CS(=O)(=O)c1ccc(C2Nc3cnc4[nH]ccc4c3N2C2CCC(C#N)CC2)cc1 (stereo in doubt) [LXS44, trans-4-(2-(4-(Methylsulfonyl)phenyl)-2,3-dihydroimidazo[4,5-d]pyrrolo[2,3-b]pyridin-1(6H)-yl)cyclohexanecarbonitrile]
26 | – | 10 to 100 | Cc1ccc(-c2nc3cnc4[nH]ccc4c3n2-c2cnn(CCC#N)c2)s1 [LXS84, 3-(4-(2-(5-Methylthiophen-2-yl)imidazo[4,5-d]pyrrolo[2,3-b]pyridin-1(6H)-yl)-1H-pyrazol-1-yl)propanenitrile]
